Assay results as given in ChEMBL document CHEMBL5523684, “Development of a tetrahydroindazolone-based HDAC6 inhibitor with in-vivo anti-arthritic activity” (Bioorg Med Chem, 2024).

Key:
Homo sapiens = species: Homo sapiens; experiment: Selectivity index, ratio of IC50 for inhibition of his-tagged human recombinant HDAC1 using fluor de lys-SIRT1 as substrate to IC50 for inhibition of N-terminal GST-tagged human recombinant HDAC6 expressed in Spodoptera frugiperda
[1] = molecular target: T1, Protein deacetylase HDAC6 (Homo sapiens, UniProt Q9UBN7); experiment: Inhibition of N-terminal GST-tagged human recombinant HDAC6 expressed in Spodoptera frugiperda incubated for 60 mins by fluorescence based analysis
T1 sequence (Q9UBN7 whole entry): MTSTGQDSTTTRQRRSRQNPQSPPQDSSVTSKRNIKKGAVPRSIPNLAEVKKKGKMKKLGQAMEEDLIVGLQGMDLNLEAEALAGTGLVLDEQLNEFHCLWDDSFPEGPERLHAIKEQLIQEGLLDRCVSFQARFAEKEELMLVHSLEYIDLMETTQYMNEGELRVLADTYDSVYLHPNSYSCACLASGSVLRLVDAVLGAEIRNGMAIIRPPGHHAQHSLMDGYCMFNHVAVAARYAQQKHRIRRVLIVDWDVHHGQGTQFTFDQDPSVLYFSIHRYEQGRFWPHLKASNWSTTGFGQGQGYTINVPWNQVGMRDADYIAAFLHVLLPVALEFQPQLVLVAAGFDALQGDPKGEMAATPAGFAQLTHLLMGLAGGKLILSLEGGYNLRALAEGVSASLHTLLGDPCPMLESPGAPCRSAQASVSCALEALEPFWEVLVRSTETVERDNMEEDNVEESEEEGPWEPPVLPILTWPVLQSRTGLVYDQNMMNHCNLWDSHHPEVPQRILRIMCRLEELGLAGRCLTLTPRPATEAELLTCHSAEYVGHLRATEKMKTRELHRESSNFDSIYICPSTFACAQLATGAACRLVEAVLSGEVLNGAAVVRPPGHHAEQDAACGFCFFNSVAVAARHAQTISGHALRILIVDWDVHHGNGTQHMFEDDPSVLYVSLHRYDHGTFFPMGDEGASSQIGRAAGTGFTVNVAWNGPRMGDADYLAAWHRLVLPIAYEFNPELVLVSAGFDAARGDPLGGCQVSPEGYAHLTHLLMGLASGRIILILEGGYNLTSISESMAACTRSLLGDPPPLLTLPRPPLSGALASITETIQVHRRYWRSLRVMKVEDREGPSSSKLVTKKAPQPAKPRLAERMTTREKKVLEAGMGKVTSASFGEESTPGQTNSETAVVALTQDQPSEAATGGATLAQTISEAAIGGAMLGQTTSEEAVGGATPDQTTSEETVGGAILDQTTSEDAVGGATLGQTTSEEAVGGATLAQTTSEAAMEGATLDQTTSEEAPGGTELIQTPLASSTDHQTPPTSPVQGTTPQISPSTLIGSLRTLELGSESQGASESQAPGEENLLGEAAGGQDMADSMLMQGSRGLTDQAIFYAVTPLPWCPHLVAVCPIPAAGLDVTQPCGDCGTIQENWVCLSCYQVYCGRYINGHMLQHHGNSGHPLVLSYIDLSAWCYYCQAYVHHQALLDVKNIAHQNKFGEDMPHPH

Histone deacetylase 1 [2] = molecular target: T2, Histone deacetylase 1 (Homo sapiens, UniProt Q13547); experiment: Inhibition of his-tagged human recombinant HDAC1 using fluor de lys-SIRT1 as substrate incubated for 60 mins by fluorescence based analysis
T2 sequence (Q13547 whole entry): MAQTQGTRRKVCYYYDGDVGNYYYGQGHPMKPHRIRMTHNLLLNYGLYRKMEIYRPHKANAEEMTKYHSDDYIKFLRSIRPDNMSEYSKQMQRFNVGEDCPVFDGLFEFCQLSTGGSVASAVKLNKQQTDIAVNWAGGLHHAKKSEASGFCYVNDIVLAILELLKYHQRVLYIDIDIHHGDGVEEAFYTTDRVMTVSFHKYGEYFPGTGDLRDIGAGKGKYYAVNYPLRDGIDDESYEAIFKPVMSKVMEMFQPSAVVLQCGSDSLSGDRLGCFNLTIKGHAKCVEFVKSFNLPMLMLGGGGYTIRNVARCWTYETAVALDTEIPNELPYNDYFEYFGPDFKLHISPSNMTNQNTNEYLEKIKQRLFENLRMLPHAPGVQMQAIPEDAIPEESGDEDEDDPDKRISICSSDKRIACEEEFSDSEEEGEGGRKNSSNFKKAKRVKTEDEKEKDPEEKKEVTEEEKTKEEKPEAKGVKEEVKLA

Histone deacetylase 3 = Histone deacetylase 3 (Homo sapiens, UniProt O15379)
Histone deacetylase 3, sequence (O15379 whole entry, the tested form may be a part): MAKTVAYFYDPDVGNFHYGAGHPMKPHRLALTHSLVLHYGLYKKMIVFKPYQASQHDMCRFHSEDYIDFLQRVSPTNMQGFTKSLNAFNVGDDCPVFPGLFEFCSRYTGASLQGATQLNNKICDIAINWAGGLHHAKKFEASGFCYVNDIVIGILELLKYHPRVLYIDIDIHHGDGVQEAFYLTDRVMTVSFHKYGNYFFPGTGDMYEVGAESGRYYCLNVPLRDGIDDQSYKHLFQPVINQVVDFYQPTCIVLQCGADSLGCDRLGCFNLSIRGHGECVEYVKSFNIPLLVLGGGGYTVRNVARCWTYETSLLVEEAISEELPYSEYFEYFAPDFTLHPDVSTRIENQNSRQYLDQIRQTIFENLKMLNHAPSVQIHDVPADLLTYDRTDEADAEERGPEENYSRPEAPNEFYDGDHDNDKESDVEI

Histone deacetylase 2 = Histone deacetylase 2 (Homo sapiens, UniProt Q92769); experiment: Inhibition of human recombinant HDAC2 using fluorescent peptide p53 (379 to 382 residues) RHKK(Ac) as substrate by fluorescence based analysis
Histone deacetylase 2, sequence (Q92769 whole entry, the tested form may be a part): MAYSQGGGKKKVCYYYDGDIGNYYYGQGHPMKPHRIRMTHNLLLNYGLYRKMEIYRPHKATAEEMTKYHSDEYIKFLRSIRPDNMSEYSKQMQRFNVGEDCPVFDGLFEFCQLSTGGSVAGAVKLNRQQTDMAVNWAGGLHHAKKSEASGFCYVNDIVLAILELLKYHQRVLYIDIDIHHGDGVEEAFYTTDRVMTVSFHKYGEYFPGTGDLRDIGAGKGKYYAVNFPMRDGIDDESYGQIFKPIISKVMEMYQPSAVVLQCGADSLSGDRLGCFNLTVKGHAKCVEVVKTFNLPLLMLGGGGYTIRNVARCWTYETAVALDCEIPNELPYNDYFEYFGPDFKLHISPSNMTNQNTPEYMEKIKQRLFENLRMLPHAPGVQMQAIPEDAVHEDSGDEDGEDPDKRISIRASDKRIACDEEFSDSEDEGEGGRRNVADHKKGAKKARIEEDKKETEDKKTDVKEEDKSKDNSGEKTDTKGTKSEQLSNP

[3] = molecular target: T3, Polyamine deacetylase HDAC10 (Homo sapiens, UniProt Q969S8); experiment: Inhibition of human recombinant HDAC10 using fluorescent peptide p53 (379 to 382 residues) RHKK(Ac) as substrate by fluorescence based analysis
T3 sequence (Q969S8 whole entry): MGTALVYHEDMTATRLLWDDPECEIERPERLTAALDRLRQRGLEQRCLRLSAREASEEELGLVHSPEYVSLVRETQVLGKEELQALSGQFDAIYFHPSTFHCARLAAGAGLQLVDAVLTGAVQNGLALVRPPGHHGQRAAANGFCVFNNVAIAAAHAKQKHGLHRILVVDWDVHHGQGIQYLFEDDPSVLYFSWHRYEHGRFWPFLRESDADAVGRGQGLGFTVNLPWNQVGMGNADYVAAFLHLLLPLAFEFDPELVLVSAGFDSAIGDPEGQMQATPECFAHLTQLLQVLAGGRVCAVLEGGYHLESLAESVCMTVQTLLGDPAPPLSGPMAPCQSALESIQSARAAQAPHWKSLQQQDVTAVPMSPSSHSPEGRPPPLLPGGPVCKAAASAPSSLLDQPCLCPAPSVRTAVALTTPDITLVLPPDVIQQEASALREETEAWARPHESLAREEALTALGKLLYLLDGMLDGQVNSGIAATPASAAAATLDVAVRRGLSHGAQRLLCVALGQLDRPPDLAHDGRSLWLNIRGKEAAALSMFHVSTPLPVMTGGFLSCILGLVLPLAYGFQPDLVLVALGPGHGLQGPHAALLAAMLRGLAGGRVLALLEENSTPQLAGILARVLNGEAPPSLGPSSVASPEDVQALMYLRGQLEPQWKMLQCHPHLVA

[4] = molecular target: T1, Protein deacetylase HDAC6; experiment: Inhibition of human recombinant HDAC6 using fluorescent peptide p53 (379 to 382 residues) RHKK(Ac) as substrate by fluorescence based analysis
Histone deacetylase 1 [5] = molecular target: T2, Histone deacetylase 1; experiment: Inhibition of HDAC1 (unknown origin)

| Structure (SMILES) | Ratio IC50 (Homo sapiens) | IC50 [1] | also measured |
| --- | --- | --- | --- |
| CC1CN(CC2CCc3c(c4ccccc4n3Cc3ccc(C(=O)NO)cc3)C2=O)CC(C)O1 (stereo not drawn) | 79.1 | 11 nM | IC50 (Histone deacetylase 1 [2]): 870 nM |
| CC1(C)Cc2c(c3ccccc3n2Cc2ccc(C(=O)NO)cc2)C(=O)C1CN1CCOCC1 (stereo not drawn) | 153 | – | – |
| CC1(C)Cc2c(c3cc(F)ccc3n2Cc2ccc(C(=O)NO)cc2)C(=O)C1CN1CCOCC1 (stereo not drawn) | 41.4 | – | – |
| CCN1CCN(CC2CCc3c(c4cc(F)ccc4n3Cc3ccc(C(=O)NO)cc3)C2=O)CC1 (stereo not drawn) | 202 | 11 nM | – |
| CN1CCN(CC2C(=O)c3c(n(Cc4ccc(C(=O)NO)cc4)c4ccc(F)cc34)CC2(C)C)CC1 (stereo not drawn) | 182 | 2 nM | – |
| CC1(C)CC(=O)c2c(n(Cc3ccc(C(=O)NO)cc3)c3ccc(Br)cc23)C1 | 42.4 | – | – |
| Cc1nccn1CC1CCc2c(c3cc(F)ccc3n2Cc2ccc(C(=O)NO)cc2)C1=O (stereo not drawn) | 570 | 9 nM | – |
| Cc1cn(Cc2ccc(C(=O)NO)cc2)c2c1C(=O)CC(C)(C)C2 | 380 | 8 nM | – |
| CC1(C)CC(=O)c2c(n(Cc3ccc(C(=O)NO)cc3)c3ccccc23)C1 | 345 | 12 nM | IC50 (Histone deacetylase 1 [2]): 4140 nM |
| Cc1cn(Cc2ccc(C(=O)NO)cc2)c2c1C(=O)CCC2 | 543 | 2 nM | IC50 (Histone deacetylase 1 [2]): 1130 nM |
| CC(C)(C)OC(=O)N1CCN(CC2CCc3c(c4cc(F)ccc4n3Cc3ccc(C(=O)NO)cc3)C2=O)CC1 (stereo not drawn) | 311 | – | – |
| Cc1nn(Cc2ccc(C(=O)NO)cc2)c2c1C(=O)CC(C)(C)C2 | 135 | 12 nM | – |
| CN1CCN(CC2CCc3c(c4ccccc4n3Cc3ccc(C(=O)NO)cc3)C2=O)CC1 (stereo not drawn) | 345 | 12 nM | – |
| Cc1nccn1CC1C(=O)c2c(n(Cc3ccc(C(=O)NO)cc3)c3ccccc23)CC1(C)C (stereo not drawn) | 166 | 35 nM | – |
| Cc1ccc(N2CCN(CC3CCc4c(c5ccccc5n4Cc4ccc(C(=O)NO)cc4)C3=O)CC2)cc1C (stereo not drawn) | 203 | 40 nM | – |
| Cc1c2c(n(Cc3ccc(C(=O)NO)cc3)c1C)CCCC2=O | 705 | 4 nM | – |
| CC(C)(C)OC(=O)N1CCN(CC2CCc3c(c4ccccc4n3Cc3ccc(C(=O)NO)cc3)C2=O)CC1 (stereo not drawn) | 327 | – | – |
| CCCCN1CCN(CC2CCc3c(c4cc(F)ccc4n3Cc3ccc(C(=O)NO)cc3)C2=O)CC1 (stereo not drawn) | 373 | 6 nM | – |
| CC(C)N1CCN(CC2CCc3c(c4cc(F)ccc4n3Cc3ccc(C(=O)NO)cc3)C2=O)CC1 (stereo not drawn) | 50.2 | – | – |
| CN1CCN(CC2CCc3c(c4cc(F)ccc4n3Cc3ccc(C(=O)NO)cc3)C2=O)CC1 (stereo not drawn) | 530 | 5 nM | IC50 (Histone deacetylase 3): > 20000 nM; IC50 (Histone deacetylase 2): > 20000 nM; IC50 [3]: > 20000 nM; IC50 [4]: 4 nM |
| Cc1c2c(n(Cc3ccc(C(=O)NO)cc3)c1C)CC(C)(C)CC2=O | 464 | 11 nM | – |
| O=C(NO)c1ccc(Cn2c3c(c4ccccc42)C(=O)C(CN2CCCCC2)CC3)cc1 (stereo not drawn) | 284 | 12 nM | – |
| CCN1CCN(CC2CCc3c(c4ccccc4n3Cc3ccc(C(=O)NO)cc3)C2=O)CC1 (stereo not drawn) | 329 | 14 nM | – |
| O=C(NO)c1ccc(Cn2c3c(c4ccccc42)C(=O)C(CN2CCN(c4ccc(F)cc4)CC2)CC3)cc1 (stereo not drawn) | 661 | 8 nM | – |
| O=C(NO)c1ccc(Cn2c3c(c4cc(F)ccc42)C(=O)CCC3)cc1 | 328 | – | – |
| O=C(NO)c1ccc(Cn2c3c(c4ccccc42)CCCC3)cc1 | – | – | IC50 (Histone deacetylase 1 [5]): 10900 nM |
| O=C(NO)c1ccc(Cn2c3c(c4cc(F)ccc42)C(=O)C(CN2CCOCC2)CC3)cc1 (stereo not drawn) | 828 | 5 nM | – |
